In one assay the target is T1, human recombinant GPR65 (Homo sapiens, UniProt Q8IYL9).
T1 construct: host or cells: 1321N1 human astrocytoma cells (1321N1-hrGPR65)
T1 sequence (Q8IYL9 whole entry): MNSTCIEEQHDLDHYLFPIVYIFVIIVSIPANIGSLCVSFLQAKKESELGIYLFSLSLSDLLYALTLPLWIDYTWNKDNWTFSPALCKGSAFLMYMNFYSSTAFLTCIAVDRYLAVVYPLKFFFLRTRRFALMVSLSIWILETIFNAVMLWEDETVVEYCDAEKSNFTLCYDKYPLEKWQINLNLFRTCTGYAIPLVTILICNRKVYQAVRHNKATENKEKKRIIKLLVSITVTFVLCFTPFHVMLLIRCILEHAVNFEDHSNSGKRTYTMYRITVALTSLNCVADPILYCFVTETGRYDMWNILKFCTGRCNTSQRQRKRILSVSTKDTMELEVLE
Kind of assay: Human GPR65 cAMP HTRF antagonist assay.
Conditions: not given
Format: cell-based. The method in brief: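 1321N1 astrocytoma cells stably expressing GPR65 were preincubated with compound for 30 min at room temperature in KRH pH 7.6 with 1 mM IBMX and 200 μM EDTA. They were then stimulated at assay pH 7.2 for 30 min, with controls at pH 7.9. cAMP was read by HTRF (665/620 nm), normalised to controls and fitted by 4-parameter logistic to give IC50.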
`COC(=O)c1ccc(NC(=O)N2[C@H]3CC[C@@H]2c2ccnc(F)c2C3)cc1Cl` [Compound 122, Methyl 2-chloro-4-((5R,8S)-1-fluoro-6,7,8,9-tetrahydro-5H-5,8-epiminocyclohepta[c]pyridine-10-carboxamido)benzoate]: the IC50 was less than 0.5 µM. In the case of `COC(=O)c1cc(NC(=O)N2[C@H]3CC[C@@H]2c2ccnc(F)c2C3)ccc1Cl` [Compound 123, Methyl 2-chloro-5-((5R,8S)-1-fluoro-6,7,8,9-tetrahydro-5H-5,8-epiminocyclohepta[c]pyridine-10-carboxamido)benzoate], the IC50 was less than 0.5 µM.

For the compound `O=C(Nc1ccc(OC(F)(F)F)c(Cl)c1)N1[C@H]2CC[C@@H]1c1ccnc(F)c1C2` [Compound 124, (5R,8S)-N-(3-Chloro-4-(trifluoromethoxy)phenyl)-1-fluoro-6,7,8,9-tetrahydro-5H-5,8-epiminocyclohepta[c]pyridine-10-carboxamide], the IC50 is less than 0.5 µM. The same measure, in the same setting: in the case of `COC(=O)c1cc(NC(=O)N2[C@H]3CC[C@@H]2c2ccnc(F)c2C3)c(F)cc1Cl` [Compound 125, Methyl 2-chloro-4-fluoro-5-((5R,8S)-1-fluoro-6,7,8,9-tetrahydro-5H-5,8-epiminocyclohepta[c]pyridine-10-carboxamido)benzoate] it was less than 0.5 µM; in that of `O=C(Nc1cc(C(F)(F)F)c(Cl)cc1F)N1[C@H]2CC[C@@H]1c1ccnc(F)c1C2` [Compound 126, (5R,8S)-N-(4-Chloro-2-fluoro-5-(trifluoromethyl)phenyl)-1-fluoro-6,7,8,9-tetrahydro-5H-5,8-epiminocyclohepta[c]pyridine-10-carboxamide], less than 0.5 µM; in that of `O=C(Nc1ccc(OC(F)F)c(Cl)c1)N1[C@H]2CC[C@@H]1c1c[nH]c(=O)cc1C2` [Compound 127, (6S,9R)-N-(3-Chloro-4-(difluoromethoxy)phenyl)-3-oxo-3,5,6,7,8,9-hexahydro-2H-6,9-epiminocyclohepta[c]pyridine-10-carboxamide], less than 0.5 µM. For the compound `O=C(Nc1ccc(OC(F)(F)F)c(Cl)c1)N1[C@H]2CC[C@@H]1c1c[nH]c(=O)cc1C2` [Compound 128, (6S,9R)-N-(3-Chloro-4-(trifluoromethoxy)phenyl)-3-oxo-3,5,6,7,8,9-hexahydro-2H-6,9-epiminocyclohepta[c]pyridine-10-carboxamide], the IC50 is less than 0.5 µM. The same measure, in the same setting: the result for `O=C(Nc1cc(C(F)(F)F)c(Cl)cc1F)N1[C@H]2CC[C@@H]1c1c[nH]c(=O)cc1C2` [Compound 129, (6S,9R)-N-(4-Chloro-2-fluoro-5-(trifluoromethyl)phenyl)-3-oxo-3,5,6,7,8,9-hexahydro-2H-6,9-epiminocyclohepta[c]pyridine-10-carboxamide] reads less than 0.5 µM. The same measure, in the same setting: the result for `O=C(Nc1ccc(OC(F)F)c(Cl)c1)N1[C@H]2CC[C@@H]1c1ccnc(F)c1C2` [Compound 133, (5R,8S)—N-(3-Chloro-4-(difluoromethoxy)phenyl)-1-fluoro-6,7,8,9-tetrahydro-5H-5,8-epiminocyclohepta[c]pyridine-10-carboxamide] reads less than 0.5 µM. For `C[C@H]1c2cnccc2[C@H]2CC[C@@H]1N2C(=O)Nc1ccc(Cl)c(Cl)c1` [Compound 134, (5R,8S,9S)-N-(3,4-Dichlorophenyl)-9-methyl-6,7,8,9-tetrahydro-5H-5,8-epiminocyclohepta[c]pyridine-10-carboxamide], the IC50 is less than 0.5 µM. The same measure, in the same setting: the result for `O=C(Nc1ccc(Cl)c(Cl)c1)N1[C@@H]2CC[C@H]1[C@@H](F)c1cc(F)ncc12` [Compound 140, (5S,6S,9R)-N-(3,4-Dichlorophenyl)-3,5-difluoro-6,7,8,9-tetrahydro-5H-6,9-epiminocyclohepta[c]pyridine-10-carboxamide] reads less than 0.5 µM. Still for that read-out and setting: in the case of `O=C(Nc1cc(Cl)c(Br)cc1F)N1[C@H]2CC[C@@H]1c1c[nH]c(=O)cc1C2` [Compound 141, (6S,9R)-N-(4-Bromo-5-chloro-2-fluorophenyl)-3-oxo-3,5,6,7,8,9-hexahydro-2H-6.9-epiminocyclohepta[c]pyridine-10-carboxamide] it was less than 0.5 µM; in that of `O=C(Nc1cc(Br)c(Cl)cc1F)N1[C@H]2CC[C@@H]1c1c[nH]c(=O)cc1C2` [Compound 142, (6S,9R)-N-(5-Bromo-4-chloro-2-fluorophenyl)-3-oxo-3,5,6,7,8,9-hexahydro-2H-6,9-epiminocyclohepta[c]pyridine-10-carboxamide], less than 0.5 µM; in that of `O=C(Nc1ccc(Br)c(Cl)c1)N1[C@H]2CC[C@@H]1c1c[nH]c(=O)cc1C2` [Compound 143, (6S,9R)-N-(4-Bromo-3-chlorophenyl)-3-oxo-3,5,6,7,8,9-hexahydro-2H-6,9-epiminocyclohepta[c]pyridine-10-carboxamide], less than 0.5 µM. Same read-out and setting: in the case of `O=C(Nc1cc(Br)c(C(F)(F)F)cc1F)N1[C@H]2CC[C@@H]1c1c[nH]c(=O)cc1C2` [Compound 144, (6S,9R)-N-(5-Bromo-2-fluoro-4-(trifluoromethyl)phenyl)-3-oxo-3,5,6,7,8,9-hexahydro-2H-6,9-epiminocyclohepta[c]pyridine-10-carboxamide] it was less than 0.5 µM; in that of `O=C(Nc1ccc(Cl)c(Br)c1)N1[C@H]2CC[C@@H]1c1c[nH]c(=O)cc1C2` [Compound 145, (6S,9R)-N-(3-Bromo-4-chlorophenyl)-3-oxo-3,5,6,7,8,9-hexahydro-2H-6.9-epiminocyclohepta[c]pyridine-10-carboxamide], less than 0.5 µM; in that of `O=C(Nc1cc(Cl)c(C(F)(F)F)cc1F)N1[C@H]2CC[C@@H]1c1c[nH]c(=O)c(F)c1C2` [Compound 146, (6S,9R)-N-(5-Chloro-2-fluoro-4-(trifluoromethyl)phenyl)-4-fluoro-3-oxo-3,5,6,7,8,9-hexahydro-2H-6,9-epiminocyclohepta[c]pyridine-10-carboxamide], less than 0.5 µM. As to `O=C(Nc1cc(Cl)c(C(F)(F)F)cc1F)N1[C@@H]2CC[C@H]1c1c[nH]c(=O)c(F)c1C2` [Compound 147, (6R,9S)-N-(5-Chloro-2-fluoro-4-(trifluoromethyl)phenyl)-4-fluoro-3-oxo-3,5,6,7,8,9-hexahydro-2H-6,9-epiminocyclohepta[c]pyridine-10-carboxamide], the IC50 is less than 0.5 µM. As to `O=C(Nc1cc(Cl)c(Cl)cc1O)N1[C@H]2CC[C@@H]1c1ccnc(F)c1C2` [Compound 149, (5R,8S)—N-(4,5-Dichloro-2-hydroxyphenyl)-1-fluoro-6,7,8,9-tetrahydro-5H-5,8-epiminocyclohepta[c]pyridine-10-carboxamide], the IC50 was less than 0.5 µM. Same read-out and setting: in the case of `N#Cc1cc(NC(=O)N2[C@H]3CC[C@@H]2c2ccnc(F)c2C3)ccc1C(F)(F)F` [Compound 151, (5R,8S)-N-(3-cyano-4-(trifluoromethyl)phenyl)-1-fluoro-6,7,8,9-tetrahydro-5H-5,8-epiminocyclohepta[c]pyridine-10-carboxamide] it was less than 0.5 µM; in that of `O=C(Nc1ccc(C(F)(F)F)c(Br)c1)N1[C@H]2CC[C@@H]1c1ccnc(F)c1C2` [Compound 153, (5R,8S)-N-(3-Bromo-4-(trifluoromethyl)phenyl)-1-fluoro-6,7,8,9-tetrahydro-5H-5,8-epiminocyclohepta[c]pyridine-10-carboxamide], less than 0.5 µM; in that of `C=CC(=O)Nc1ccc(NC(=O)N2[C@H]3CC[C@@H]2c2ccnc(F)c2C3)cc1Cl` [Compound 179, (5R,8S)-N-(4-Acrylamido-3-chlorophenyl)-1-fluoro-6,7,8,9-tetrahydro-5H-5,8-epiminocyclohepta[c]pyridine-10-carboxamide], 0.5 to 5 µM.

Take `O=C(Nc1cc(Br)c(C(F)(F)F)cc1F)N1[C@H]2CC[C@@H]1c1ccnc(F)c1C2` [Compound 180, (5R,8S)-N-(5-Bromo-2-fluoro-4-(trifluoromethyl)phenyl)-1-fluoro-6,7,8,9-tetrahydro-5H-5,8-epiminocyclohepta[c]pyridine-10-carboxamide]: the IC50 is less than 0.5 µM. `O=C(Nc1cccc(-c2ccccc2)c1)N1[C@H]2CC[C@@H]1c1ccnc(F)c1C2` [Compound 184, (5R,8S)-N-([1,1′-Biphenyl]-3-yl)-1-fluoro-6,7,8,9-tetrahydro-5H-5,8-epiminocyclohepta[c]pyridine-10-carboxamide]: the IC50 is less than 0.5 µM.

The assay is the same for the next values; noted with them: 1321N1-hrGPR65 cells, assay pH 7.2, cAMP HTRF; read-out: hGPR65 IC50 (activity class).
Take `COC(=O)c1ccc(NC(=O)N2[C@H]3CC[C@@H]2c2c[nH]c(=O)cc2C3)cc1Cl` [Compound 130, Methyl 2-chloro-4-((6S,9R)-3-oxo-3,5,6,7,8,9-hexahydro-2H-6,9-epiminocyclohepta[c]pyridine-10-carboxamido)benzoate]: the IC50 lay in the range of 0.5 to 5 µM. The same measure, in the same setting: in the case of `COC(=O)c1cc(NC(=O)N2[C@H]3CC[C@@H]2c2c[nH]c(=O)cc2C3)ccc1Cl` [Compound 131, Methyl 2-chloro-5-((6S,9R)-3-oxo-3,5,6,7,8,9-hexahydro-2H-6,9-epiminocyclohepta[c]pyridine-10-carboxamido)benzoate] it was 0.5 to 5 µM; in that of `COC(=O)c1cc(NC(=O)N2[C@H]3CC[C@@H]2c2c[nH]c(=O)cc2C3)c(F)cc1Cl` [Compound 132, Methyl 2-chloro-4-fluoro-5-((6S,9R)-3-oxo-3,5,6,7,8,9-hexahydro-2H-6,9-epiminocyclohepta[c]pyridine-10-carboxamido)benzoate], 0.5 to 5 µM. The same measure, in the same setting: in the case of `Cn1cc2c(cc1=O)C[C@@H]1CC[C@H]2N1C(=O)Nc1ccc(Cl)c(Cl)c1` [Compound 150, (6S,9R)—N-(3,4-Dichlorophenyl)-2-methyl-3-oxo-3,5,6,7,8,9-hexahydro-2H-6,9-epiminocyclohepta[c]pyridine-10-carboxamide] it was 0.5 to 5 µM; in that of `O=C(Nc1ccc(-n2cccn2)cc1)N1[C@H]2CC[C@@H]1c1ccnc(F)c1C2` [Compound 183, (5R,8S)-N-(4-(1H-Pyrazol-1-yl)phenyl)-1-fluoro-6,7,8,9-tetrahydro-5H-5,8-epiminocyclohepta[c]pyridine-10-carboxamide], 0.5 to 5 µM.
